These are literature values, as cited in patent US20200315935A1, “TOPICALLY APPLICABLE CHEMICAL PEEL COMPOSITION” (L'OREAL, priority 2015, published 2020).

For series [1] the following is noted: acute oral toxicity, mutagenicity, skin irritation, skin sensitization, and phototoxicity.

Each structure is given as a SMILES string. Like-named read-outs stand apart in the source and are kept apart here.

Consider `CC(c1ccccc1)c1ccc(O)cc1O` (stereo not shown) [Phenylethyl Resorcinol], for which the pKA is reported as 9.77-10.77. Also, the “adverse effects in basic toxicological tests” value in series [1] (listed as Phenylethyl resorcinol) is recorded as “not shown adverse effects”. In addition, the “adverse effects in basic toxicological tests” value in series [1] (listed as phenylethyl resorcinol) is reported as “not been shown to have adverse effects”.
Turning to `Oc1cccc(O)c1` [Resorcinol, reference compound], the pKA was 9.32-9.81.
